Source: patent US20220016101A1 (ACADIA Pharmaceuticals Inc., priority 2018, published 2022)

Experiments:
dopamine transporter = dopamine transporter (Homo sapiens, UniProt Q01959); assay: Receptor profile: affinity (Ki) at DAT; type: binding; conditions: data on file
[1] = test system: adults with Parkinson's disease and depression; assay: SCOPA Sleep, open-label study in Parkinson's disease and depression; type: in vivo, human; conditions: interim, first 31 patients
Description: “Scale of Outcomes in Parkinson's Disease (SCOPA) Sleep” is a scale developed for research in Parkinson disease to evaluate nighttime sleep and daytime sleepiness and has high internal consistency for the nighttime sleep and daytime sleepiness scales (0.88 and 0.91, respectively), and test-retest reliabilities (0.94 and 0.89, respectively). Scores on the SCOPA Sleep Scale show high correlations between the nighttime sleep scale and the Pittsburgh Sleep Quality Index (0.83), and between the daytime sleepiness scale and the Epworth Sleepiness Scale (0.81). The coefficient of variation of both the nighttime sleep and the daytime sleepiness scale can be higher than that of the Pittsburgh Sleep Quality Index and the Epworth Sleepiness Scale, indicating a better ability to detect differences between individuals. (Marinus J, Visser M, van Hilten J J, Lammers G J, Stiggelbout A M. Sleep. 2003; 26(8):1049-1054.)
(§1) Subjects can receive treatment as either monotherapy or adjunctively if inadequately controlled with SSRI/SNRI monotherapy. A primary endpoint of the study is change from baseline to Week 8 in the Hamilton Depression Scale 17-item (HAMD-17) total score. Secondary endpoints include Clinical Global Impression (CGI) scales (improvement and severity), Scale of Outcomes in PD-Sleep (SCOPA), and quality of life as measured by EuroQol-5 dimensions-5 levels (EQ-5D-5L).
(§2) At approximately 2, 4, and 6 weeks after start of dosing of study drug subjects returned to the clinic for assessments. Safety measures, HAMD-17, C-SSRS (Columbia Suicide Severity Rating Scale), CGI-S(Clinical Global Impression-Severity), and CGI-I (Clinical Global Impression-Improvement) were evaluated at all visits. […]
Continuous secondary efficacy endpoints (CGI-I, CGI-S, SCOPA, and EQ-5D-5L) were analyzed using similar MMRM models as for the primary efficacy endpoint, except that the Baseline value of the endpoint being analyzed was included in the model as a covariate instead of the Baseline HAMD-17 total score. […]

[2] = test system: adults with Parkinson's disease and depression; assay: HAMD-17 total score, open-label study in Parkinson's disease and depression; type: in vivo, human; conditions: Week 8; interim, first 31 patients
Experimental: as §1
Subjects were assessed for eligibility and prohibited medications were discontinued. After all screening assessments were completed, eligible subjects returned to the clinic for Baseline evaluation. After Baseline assessments were completed, subjects were enrolled and received the first dose of pimavanserin. Study medication were provided to the subjects to take home with instructions to take the medication approximately the same time each day, and return all used containers and unused study drug as scheduled.
as §2
The HAMD-17 total score was analyzed using mixed model for repeated measures (MMRM). […]

[3] = test system: patients with MDD and an inadequate response to an SSRI or SNRI; conditions: in vivo

Sequence of dopamine transporter (Q01959 whole entry): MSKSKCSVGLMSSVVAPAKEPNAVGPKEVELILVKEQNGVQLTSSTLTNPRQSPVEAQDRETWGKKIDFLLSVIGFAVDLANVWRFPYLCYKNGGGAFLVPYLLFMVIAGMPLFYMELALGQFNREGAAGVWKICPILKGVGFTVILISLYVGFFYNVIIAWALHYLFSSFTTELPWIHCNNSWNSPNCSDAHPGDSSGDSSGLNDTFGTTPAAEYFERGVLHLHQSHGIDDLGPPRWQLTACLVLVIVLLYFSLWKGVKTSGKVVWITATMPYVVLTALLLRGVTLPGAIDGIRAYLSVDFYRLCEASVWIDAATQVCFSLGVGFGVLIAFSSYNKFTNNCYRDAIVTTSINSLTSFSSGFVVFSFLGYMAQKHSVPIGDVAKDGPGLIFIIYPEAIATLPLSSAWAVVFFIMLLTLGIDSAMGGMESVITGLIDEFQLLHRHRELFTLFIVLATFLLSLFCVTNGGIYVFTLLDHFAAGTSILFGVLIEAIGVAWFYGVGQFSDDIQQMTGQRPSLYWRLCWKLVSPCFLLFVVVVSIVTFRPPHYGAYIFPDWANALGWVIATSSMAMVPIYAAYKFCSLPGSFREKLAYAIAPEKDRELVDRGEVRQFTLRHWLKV

## CC(C)COc1ccc(CNC(=O)N(Cc2ccc(F)cc2)C2CCN(C)CC2)cc1 [pimavanserin, N-(4-Fluorophenylmethyl)-N-(1-methylpiperidin-4-yl)-N′-(4-(2-methylpropyloxy)phenylmethyl)carbamide]
Dopamine transporter
  Ki: > 1 µM
[1]
  SCOPA-Daytime Sleepiness change from Baseline to Week 8: −2.1 (0.4)
  SCOPA-Global Sleep Quality change from Baseline to Week 8: −1.0 (0.4)
  SCOPA-Nighttime Sleep change from Baseline to Week 8: −2.1 (0.7)
[2]
  patients reaching remission (HAMD-17≤7): 35.5%
  patients with ≥50% improvement in the HAMD-17: 45.2%
[3]
  deaths reported in the study: no deaths
